Assays:
[1] = wn = mass fraction of the nth substance listed; conditions: for surface tension liquid-gas: Maximal bubble pressure; for mass density: 101 kPa, Liquid, Buoyancy - hydrostatic balance
[2] = refractive index (Na D-line) (dimensionless); wn = mass fraction of the nth substance listed; conditions: 101 kPa, Liquid, Standard Abbe refractometry

CC(O)C(=O)[O-].CCCCCn1cc[n+](C)c1 [1-pentyl-3-methylimidazolium lactate] + O
Conditions	mass density, [1] [kg/m3]	refractive index, [2]	surface tension liquid-gas, [1] [mN/m]
288.15 K, w2 = 0.0081	–	1.4933	–
288.15 K, w2 = 0.0086	1116.6	–	43.7
288.15 K, w2 = 0.0102	–	1.4931	–
288.15 K, w2 = 0.0106	1117.4	–	43.8
288.15 K, w2 = 0.0129	1118.6	1.4929	44
288.15 K, w2 = 0.0153	–	1.4927	–
288.15 K, w2 = 0.0163	1120.3	–	44.3
288.15 K, w2 = 0.0199	–	1.4923	–
288.15 K, w2 = 0.021	1122.4	–	44.6
293.15 K, w2 = 0.0081	–	1.492	–
293.15 K, w2 = 0.0086	1113.1	–	43.3
293.15 K, w2 = 0.0102	–	1.4918	–
293.15 K, w2 = 0.0106	1113.9	–	43.4
293.15 K, w2 = 0.0129	1115.2	1.4916	43.6
293.15 K, w2 = 0.0153	–	1.4913	–
293.15 K, w2 = 0.0163	1116.8	–	43.9
293.15 K, w2 = 0.0199	–	1.4909	–
293.15 K, w2 = 0.021	1119	–	44.2
303.15 K, w2 = 0.0081	–	1.4894	–
303.15 K, w2 = 0.0086	1106.8	–	42.6
303.15 K, w2 = 0.0102	–	1.4892	–
303.15 K, w2 = 0.0106	1107.6	–	42.7
303.15 K, w2 = 0.0129	1108.8	1.489	42.9
303.15 K, w2 = 0.0153	–	1.4888	–
303.15 K, w2 = 0.0163	1110.5	–	43.2
303.15 K, w2 = 0.0199	–	1.4884	–
303.15 K, w2 = 0.021	1112.7	–	43.5
308.15 K, w2 = 0.0081	–	1.4883	–
308.15 K, w2 = 0.0086	1103.6	–	42.2
308.15 K, w2 = 0.0102	–	1.4881	–
308.15 K, w2 = 0.0106	1104.3	–	42.3
308.15 K, w2 = 0.0129	1105.6	1.4879	42.5
308.15 K, w2 = 0.0153	–	1.4876	–
308.15 K, w2 = 0.0163	1107.3	–	42.8
308.15 K, w2 = 0.0199	–	1.4872	–
308.15 K, w2 = 0.021	1109.5	–	43.2
313.15 K, w2 = 0.0081	–	1.4869	–
313.15 K, w2 = 0.0086	1099.9	–	41.9
313.15 K, w2 = 0.0102	–	1.4867	–
313.15 K, w2 = 0.0106	1100.7	–	42
313.15 K, w2 = 0.0129	1102.1	1.4865	42.2
313.15 K, w2 = 0.0153	–	1.4863	–
313.15 K, w2 = 0.0163	1104	–	42.5
313.15 K, w2 = 0.0199	–	1.486	–
313.15 K, w2 = 0.021	1106.4	–	42.9
318.15 K, w2 = 0.0081	–	1.4857	–
318.15 K, w2 = 0.0086	1097.1	–	41.6
318.15 K, w2 = 0.0102	–	1.4855	–
318.15 K, w2 = 0.0106	1097.8	–	41.8
318.15 K, w2 = 0.0129	1099.1	1.4853	41.9
318.15 K, w2 = 0.0153	–	1.4851	–
318.15 K, w2 = 0.0163	1100.8	–	42.2
318.15 K, w2 = 0.0199	–	1.4847	–
318.15 K, w2 = 0.021	1103	–	42.6
323.15 K, w2 = 0.0081	–	1.4845	–
323.15 K, w2 = 0.0086	1093.9	–	41.2
323.15 K, w2 = 0.0102	–	1.4844	–
323.15 K, w2 = 0.0106	1094.6	–	41.4
323.15 K, w2 = 0.0129	1095.8	1.4842	41.5
323.15 K, w2 = 0.0153	–	1.4841	–
323.15 K, w2 = 0.0163	1097.5	–	41.8
323.15 K, w2 = 0.0199	–	1.4838	–
323.15 K, w2 = 0.021	1099.6	–	42.2
328.15 K, w2 = 0.0081	–	1.4833	–
328.15 K, w2 = 0.0086	1090.5	–	40.8
328.15 K, w2 = 0.0102	–	1.4831	–
328.15 K, w2 = 0.0106	1091.2	–	41
328.15 K, w2 = 0.0129	1092.5	1.4829	41.1
328.15 K, w2 = 0.0153	–	1.4826	–
328.15 K, w2 = 0.0163	1094.1	–	41.4
328.15 K, w2 = 0.0199	–	1.4822	–
328.15 K, w2 = 0.021	1096.4	–	41.8
333.15 K, w2 = 0.0081	–	1.482	–
333.15 K, w2 = 0.0086	1087.4	–	40.5
333.15 K, w2 = 0.0102	–	1.4818	–
333.15 K, w2 = 0.0106	1088.1	–	40.7
333.15 K, w2 = 0.0129	1089.3	1.4816	40.8
333.15 K, w2 = 0.0153	–	1.4814	–
333.15 K, w2 = 0.0163	1091	–	41.1
333.15 K, w2 = 0.0199	–	1.481	–
333.15 K, w2 = 0.021	1093.2	–	41.5
